Reference: paper PMC12067741, “Inhibition of SOD1 trimerization is a novel drug target for ALS disease” (Translational Neurodegeneration, 2025)
pIC50: −log10 of the molar value.

Tests used:
CYP 1A2 = CYP 1A2 (Homo sapiens, UniProt P05177); assay: CYP inhibition (direct); assay type: in vitro ADME; conditions: CYP 1A2, direct inhibition
Excerpt: Fig. S8. Preclinical data of PRG-A-04 a Plasma protein binding b CYP inhibition(direct) […]
d Mouse Brain Tissue penetration
For the convenience of calculation, […]

Plasma stability = assay type: in vitro ADME; conditions: beagle dog plasma, after 120 min of incubation

Sequence of CYP 1A2 (P05177 whole entry): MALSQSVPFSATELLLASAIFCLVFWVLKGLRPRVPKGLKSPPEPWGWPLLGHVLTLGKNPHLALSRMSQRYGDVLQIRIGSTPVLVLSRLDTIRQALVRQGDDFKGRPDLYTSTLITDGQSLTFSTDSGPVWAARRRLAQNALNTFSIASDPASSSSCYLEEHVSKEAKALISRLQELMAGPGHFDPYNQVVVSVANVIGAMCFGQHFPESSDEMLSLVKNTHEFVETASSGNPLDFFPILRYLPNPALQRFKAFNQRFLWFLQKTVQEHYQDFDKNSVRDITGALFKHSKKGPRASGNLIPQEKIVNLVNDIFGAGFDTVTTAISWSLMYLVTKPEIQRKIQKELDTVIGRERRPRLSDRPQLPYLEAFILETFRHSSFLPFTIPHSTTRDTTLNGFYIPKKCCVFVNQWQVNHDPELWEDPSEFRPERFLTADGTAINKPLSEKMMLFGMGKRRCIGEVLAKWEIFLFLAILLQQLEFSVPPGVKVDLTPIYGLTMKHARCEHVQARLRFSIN

Compound: COc1cc(C=CCOC2Cc3cc4ccc(=O)oc4cc3OC2(C)C)ccc1[N+](=O)[O-] (centres unmarked) [PRG-A-04]
- pIC50 (CYP 1A2): < 5.00
- stability in plasma (Plasma stability): stable
